Where a SMILES comes first, the peptide text is derived from it. The star is where a group is joined. Cbz = O=C(OCc1ccccc1)*; CH2F = FC*
What was measured:
Hq cortical neurons = test: NMDA excitotoxicity in Hq cortical neurons; assay type: cell-based, mouse; conditions: DPQ (30 μM) or zVAD (100 μM) in addition to NMDA
Experimental: HQ cortical neuron cells were transduced with lentivirus carrying WT-AIF-Flag or Pbm-AIF-Flag. Non-transduced neurons and GFP-lentivirus infected cells were used as negative controls. […] In those photos, blue indicates Hoechst 33342 staining and red indicates propidium iodide staining. […] The cytotoxicity in these Hq cortical neurons was measured at 24 hours, 36 hours, and 48 hours after NMDA (500 μM for 5 min) treatment, and the data for this is reported in the graph of FIG. 18B.

HeLa cells = test: AIF nuclear translocation in HeLa cells after MNNG; assay type: cell-based; conditions: MNNG 50 μM for 15 minutes
Experimental: Unless otherwise set forth herein, immunocytochemistry, immunohistochemistry and confocal microscopy as referenced in the examples entailed the following materials and procedures. For immunocytochemistry, cells were fixed 2 hours after treatment with 4% paraformaldehyde, permeabilized with 0.05% Triton X-100, and blocked with 3% bovine serum albumin in PBS. AIF was visualized by 2 μg/ml mouse anti-Flag/Cyt AffiniPure Donkey Anti-Mouse IgG or rabbit anti-AIF/Cy3 AffiniPure Donkey Anti-Rabbit IgG. Immunohistochemistry was performed using the antibody against Flag. Immunofluorescence analysis thereafter was carried out by using a LSM510 confocal laser scanning microscope (obtained from Carl Zeiss Microlmaging) as described by H. Wang et al. (J. Neurosci, 2004).

Hq MEFs = test: MNNG cytotoxicity in Hq MEFs; assay type: cell-based, mouse; conditions: zVAD 100 μM, 24 hours after MNNG 500 μM for 15 min
Experimental: Further, the effect WT-AIF-Flag or Pbm-AIF-Flag on Hq MEF cell viability was determined 24 hours after MNNG (500 μM for 15 min) cytotoxicity with and without zVAD (100 μM), and the results of three trials is reported in FIG. 17B.

SMILES | effect on NMDA-induced cortical neuron death (Hq cortical neurons) | effect on nuclear translocation of AIF after MNNG (HeLa cells) | effect on MNNG-induced cell death (Hq MEFs)
O=C1NCCc2c(OCCCCN3CCCCC3)cccc21 [DPQ, 3,4-Dihydro-5[4-(1-piperindinyl)butoxy]-1(2H)-isoquinoline, reference compound] | inhibited NMDA-induced cortical neuron death | prevented the nuclear translocation of both endogenous AIF and WT-AIF-Flag | –
CC(NC(=O)C(NC(=O)OCc1ccccc1)C(C)C)C(=O)NC(CC(=O)O)C(=O)CF (stereo not drawn) [zVAD, reference compound] (Cbz-Val-Ala-Asp-CH2F; configuration not given here) | did not | – | failed to influence MNNG-induced cell death in MEFs

Source: US20120122765A1, “COMPOUNDS AND RELATED METHODS FOR MANIPULATING PARP-1-DEPENDENT CELL DEATH” (priority 2010, published 2012)
